In patent US11738053B2, “Methods and compositions for treating chronic granulomatous disease” (THE BOARD OF REGENTS OF THE UNIVERSITY OF TEXAS SYSTEM, priority 2016, dated 2023):

How the values were obtained:
[1] = without irradiation and chemotherapy; cited from earlier work
[2] = test system: NADPH oxidase in K562 cells; experiment: Superoxide generation (Diogenes luminescence) in K562 cells reconstituted with gp91^phox vectors; type: cell-based; conditions: K562 cells stably expressing human p47^phox and p67^phox, transfected 48 h before measurement
Description: FIG. 15. The gp91^phox (T196F) mutant is superactive compared with wild-type. A cellular luminescence enhancement system for superoxide detection (Diogenes, National Diagnostics) was used. Human p47^phox and p67^phox stably expressing K562 cells were transfected with either wild-type human gp91^phox vector, gp91^phox (T196F) vector, or empty vector pcDNA 3.1 48 h before measurement. K562 cells constitutively express p22^phox and Rac. The experiment shown is representative of 3 studies.
In a structure/function study of gp91^phox, a super-active variant of gp91^phox (T196F) was generated in which residue 196 is mutated from threonine to phenylalanine (FIG. 15). PMA-stimulated superoxide generation was 7-fold greater when gp91^phox(T196F), versus wild-type gp91^phox, was used to reconstitute the NADPH oxidase in K562 cells. The mutant construct was made by Quik-Change™ site-directed mutagenesis of gp91^phox using sense primer […] (SEQ ID NO:1) and antisense primer […] (SEQ ID NO:2). The construct was sequenced and subcloned into fresh pcDNA3.1 (−) using NheI and XhoI.

| Molecule | effectiveness as conditioning regimen [1] | PMA-stimulated superoxide generation relative to wild-type gp91^phox [2] [fold] |
| --- | --- | --- |
| c1cc(CN2CCCNCCNCCCNCC2)ccc1CN1CCCNCCNCCCNCC1 [AMD3100] | not to be sufficiently effective | – |
| gp91^phox(T196F): super-active variant of gp91^phox in which residue 196 is mutated from threonine to phenylalanine (protein, UniProt P04839 2-570, looked up, variant T196F) NADPH oxidase 2: GNWAVNEGLSIFVILVWLGLNVFLFVWYYRVYDIPPKFFYTRKLLGSALALARAPAACLNFNCMLILLPVCRNLLSFLRGSSACCSTRVRRQLDRNLTFHKMVAWMIALHSAIHTIAHLFNVEWCVNARVNNSDPYSVALSELGDRQNESYLNFARKRIKNPEGGLYLAVTLLAGITGVVITLCLILIITSSTKFIRRSYFEVFWYTHHLFVIFFIGLAIHGAERIVRGQTAESLAVHNITVCEQKISEWGKIKECPIPQFAGNPPMTWKWIVGPMFLYLCERLVRFWRSQQKVVITKVVTHPFKTIELQMKKKGFKMEVGQYIFVKCPKVSKLEWHPFTLTSAPEEDFFSIHIRIVGDWTEGLFNACGCDKQEFQDAWKLPKIAVDGPFGTASEDVFSYEVVMLVGAGIGVTPFASILKSVWYKYCNNATNLKLKKIYFYWLCRDTHAFEWFADLLQLLESQMQERNNAGFLSYNIYLTGWDESQANHFAVHHDEEKDVITGLKQKTLYGRPNWDNEFKTIASQHPNTRIGVFLCGPEALAETLSKQSISNSESGPRGVHFIFNKENF | – | 7 |
